Measurements: patent US20250282768A1 (Janssen Pharmaceutica NV, priority 2022, published 2025)

What follows are compounds tested on p-IKKa levels in L363 (NIK translocated multiple myeloma) cells (assay: Assay 2: Effect of compounds on p-IKKa levels in L363 (NIK translocated multiple myeloma) cells). Details: Homo sapiens, L-363, 6 h, read-out: Assay 2 IC50 (nM), p-IKKa (Ser 176/180) in BAFF stimulated L363 cells with MG132, 6 h; average if tested more than once.
Format: cell-based
In short: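 Read-out is p-IKKa Ser176/180 by AlphaLISA SureFire in lysates. Cells were BAFF-primed (250 ng/ml) overnight or left unstimulated, then exposed 6 h at 37 °C to compound with MG132 (10 μM), 0.3% DMSO. IC50 from sigmoidal curve fit, normalized between stimulated and unstimulated controls.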
In the case of `CN1CC(F)(F)[C@@](O)(c2cn(-c3cccc(-c4ccnc(Nc5cnn(C)c5Cl)n4)n3)nn2)C1=O` [Example 109, (R)-3-(1-(6-(2-((5-Chloro-1-methyl-1H-pyrazol-4-yl)amino)pyrimidin-4-yl)pyridin-2-yl)-1H-1,2,3-triazol-4-yl)-4,4-difluoro-3-hydroxy-1-methylpyrrolidin-2-one], the IC50 is reported as < 50 nM.
`CN1CC[C@@](O)(c2cn(-c3cccc(-c4ccnc(Nc5cnn(C)c5)n4)n3)nn2)C1=O` [Example 206, (R)-3-Hydroxy-1-methyl-3-(1-(6-(2-((1-methyl-1H-pyrazol-4-yl)amino)pyrimidin-4-yl)pyridin-2-yl)-1H-1,2,3-triazol-4-yl)pyrrolidin-2-one] was tested, and the IC50 was < 50 nM.
For `C[C@H](Nc1nccc(-c2cccc(-c3cc([C@]4(O)CCN(C)C4=O)on3)n2)n1)c1ccccn1` [Example 376, (R)-3-Hydroxy-1-methyl-3-(3-(6-(2-(((S)-1-(pyridin-2-yl)ethyl)amino)pyrimidin-4-yl)pyridin-2-yl)isoxazol-5-yl)pyrrolidin-2-one], the IC50 was 50 to 500 nM.
`Cc1noc([C@@H](C)Nc2nccc(-c3cccc(-c4cc([C@]5(O)CCN(C)C5=O)on4)n3)n2)n1` (single isomer, unassigned) [Example 150] showed an IC50 of 50 to 500 nM.
With `CN1CC[C@@](O)(c2cc(-c3cccc(-c4ccnc(NCCC(F)(F)F)n4)n3)no2)C1=O` [Example 435, (R)-3-Hydroxy-1-methyl-3-(3-(6-(2-((3,3,3-trifluoropropyl)amino)pyrimidin-4-yl)pyridin-2-yl)isoxazol-5-yl)pyrrolidin-2-one] the IC50 was 50 to 500 nM.
